Measurements published in patent US9115101B2 (Genentech, Inc., priority 2012, dated 2015).

Target: T1, RORc ligand binding domain (Homo sapiens, UniProt P51449)
T1 construct: host or cells: E. coli
T1 sequence (P51449 269-508 limits assumed): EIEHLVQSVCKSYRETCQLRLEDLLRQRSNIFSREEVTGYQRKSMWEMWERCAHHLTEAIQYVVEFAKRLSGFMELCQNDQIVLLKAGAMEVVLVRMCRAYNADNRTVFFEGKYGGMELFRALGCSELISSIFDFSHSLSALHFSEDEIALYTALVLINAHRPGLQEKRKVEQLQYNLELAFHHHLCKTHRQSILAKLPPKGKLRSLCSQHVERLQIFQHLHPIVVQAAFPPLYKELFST
Experiment: In Vitro RORc Ligand Binding Assay (25-[3H]hydroxycholesterol radioligand filtration)
Conditions: In Vitro RORc Ligand Binding Assay; Table 4; read-out: RORc IC50

`CC(=O)N1CCN(c2ccc(CN3[C@@H](C)CCC(c4ccccc4)S3(=O)=O)cc2C#N)CC1` (single isomer, unassigned) [Example 113] was tested. Which IC50 did it give?
Its IC50 is 2750 nM.

How did the IC50 turn out when `CC(=O)N1CCN(c2ccc(CN3[C@@H](C)CCC(c4ccccc4)S3(=O)=O)cc2C#N)CC1` (single isomer, unassigned) [Example 114] was run?
The IC50 was 201 nM.

How did the IC50 turn out when `CC(=O)N1CCN(c2ccc(CN3[C@@H](C)CCC(c4ccccc4F)S3(=O)=O)c(F)c2)CC1` (single isomer, unassigned) [Example 116] was run?
Its IC50 is 37 nM.

With `CC(=O)N1CCN(c2ccc(CN3[C@@H](C)CCC(c4ccccc4F)S3(=O)=O)c(F)c2)CC1` (single isomer, unassigned) [Example 117] as the compound, how does the IC50 read?
Its IC50 is 3 nM.

Which IC50 does the source give for `CC(=O)N1CCN(c2ccc(CN3CC(C)CC(c4ccccc4)S3(=O)=O)c(F)c2)CC1` (single isomer, unassigned) [Example 118, 1-{4-[3-Fluoro-4-(4-methyl-1,1-dioxo-6-phenyl-[1,2]thiazinan-2-ylmethyl)-phenyl]-piperazin-1-yl}-ethanone] here?
The IC50 was 20 nM.

Which IC50 does the source give for `CC(=O)N1CCN(c2ccc(CN3CC(C)CC(c4ccccc4)S3(=O)=O)c(F)c2)CC1` (single isomer, unassigned) [Example 119, 1-{4-[3-Fluoro-4-(4-methyl-1,1-dioxo-6-phenyl-[1,2]thiazinan-2-ylmethyl)-phenyl]-piperazin-1-yl}-ethanone] here?
The IC50 was 2 nM.

With `CC(=O)N1CCN(c2ccc(CN3[C@@H](C)CCC(c4ccc(F)cc4)S3(=O)=O)c(F)c2)CC1` (single isomer, unassigned) [Example 121] as the compound, how does the IC50 read?
The IC50 was 14 nM.

With `CC(=O)N1CCN(c2ccc(CN3[C@@H](C)CCC(c4ccc(F)cc4)S3(=O)=O)c(F)c2)CC1` (single isomer, unassigned) [Example 122] as the compound, how does the IC50 read?
Its IC50 is 47 nM.

Which IC50 does the source give for `CC(=O)N1CCN(c2ccc(CN3[C@@H](C)CCC(c4cccc(F)c4)S3(=O)=O)c(F)c2)CC1` (single isomer, unassigned) [Example 127] here?
Its IC50 is 58 nM.

With `CC(=O)N1CCN(c2ccc(CN3[C@@H](C)CCC(c4cccc(F)c4)S3(=O)=O)c(F)c2)CC1` (single isomer, unassigned) [Example 128] as the compound, how does the IC50 read?
Its IC50 is 52 nM.

`CC(=O)N1CCN(c2ccc(CN3[C@@H](C)CCC(c4ccccc4)S3(=O)=O)cc2C)CC1` (single isomer, unassigned) [Example 129] was tested. Which IC50 did it give?
Its IC50 is 432 nM.

How did the IC50 turn out when `CC(=O)N1CCN(c2ccc(CN3[C@@H](C)CCC(c4ccccc4)S3(=O)=O)cc2C)CC1` (single isomer, unassigned) [Example 130] was run?
Its IC50 is 72 nM.

Which IC50 does the source give for `CC(=O)N1CCN(c2ccc(CN3[C@@H](C)CCC(c4ccccc4)S3(=O)=O)c(C)c2)CC1` (single isomer, unassigned) [Example 131] here?
Its IC50 is 501 nM.

For `CC(=O)N1CCN(c2ccc(CN3[C@@H](C)CCC(c4ccccc4)S3(=O)=O)c(C)c2)CC1` (single isomer, unassigned) [Example 132], which IC50 is on record?
Its IC50 is 3930 nM.

For `C[C@H]1CCC(c2ccccc2)S(=O)(=O)N1Cc1ccc(N2CCn3nccc3C2)cc1F` (single isomer, unassigned) [Example 133], which IC50 is on record?
The IC50 was 244 nM.

How did the IC50 turn out when `C[C@H]1CCC(c2ccccc2)S(=O)(=O)N1Cc1ccc(N2CCn3nccc3C2)cc1F` (single isomer, unassigned) [Example 134] was run?
Its IC50 is 330 nM.

Which IC50 does the source give for `C[C@H]1CCC(c2ccccc2)S(=O)(=O)N1Cc1ccc(N2CCC(c3nncn3C)CC2)cc1F` (single isomer, unassigned) [Example 137] here?
The IC50 was 2480 nM.

With `C[C@H]1CCC(c2ccccc2)S(=O)(=O)N1Cc1ccc(N2CCC(c3nncn3C)CC2)cc1F` (single isomer, unassigned) [Example 138] as the compound, how does the IC50 read?
The IC50 was 1100 nM.

`C[C@H]1CCC(c2ccccc2)S(=O)(=O)N1Cc1ccc(N2CCC(c3nccn3C)CC2)cc1F` (single isomer, unassigned) [Example 139] was tested. Which IC50 did it give?
The IC50 was 1390 nM.

With `C[C@H]1CCC(c2ccccc2)S(=O)(=O)N1Cc1ccc(N2CCC(c3nccn3C)CC2)cc1F` (single isomer, unassigned) [Example 140] as the compound, how does the IC50 read?
The IC50 was 410 nM.

How did the IC50 turn out when `C[C@H]1CCC(c2ccccc2)S(=O)(=O)N1Cc1ccc(N2CCC(c3nnn[nH]3)CC2)cc1F` (single isomer, unassigned) [Example 141] was run?
Its IC50 is 57 nM.

With `C[C@H]1CCC(c2ccccc2)S(=O)(=O)N1Cc1ccc(N2CCC(c3nnn[nH]3)CC2)cc1F` (single isomer, unassigned) [Example 142] as the compound, how does the IC50 read?
Its IC50 is 192 nM.

How did the IC50 turn out when `C[C@H]1CCC(c2ccccc2)S(=O)(=O)N1Cc1ccc(N2CCC(c3n[nH]c(=O)o3)CC2)cc1F` (single isomer, unassigned) [Example 143] was run?
The IC50 was 44 nM.

Which IC50 does the source give for `C[C@H]1CCC(c2ccccc2)S(=O)(=O)N1Cc1ccc(N2CCC(c3n[nH]c(=O)o3)CC2)cc1F` (single isomer, unassigned) [Example 144] here?
Its IC50 is 21 nM.

Which IC50 does the source give for `C[C@H]1CCC(c2ccccc2)S(=O)(=O)N1Cc1ccc(N2CCc3[nH]ncc3C2)cc1F` (single isomer, unassigned) [Example 145] here?
Its IC50 is 242 nM.

How did the IC50 turn out when `CON(C)C(=O)C1CCN(c2ccc(CN3[C@@H](C)CCC(c4ccccc4)S3(=O)=O)c(F)c2)CC1` (single isomer, unassigned) [Example 146] was run?
The IC50 was 142 nM.

How did the IC50 turn out when `CON(C)C(=O)C1CCN(c2ccc(CN3[C@@H](C)CCC(c4ccccc4)S3(=O)=O)c(F)c2)CC1` (single isomer, unassigned) [Example 147] was run?
Its IC50 is 1780 nM.

`C[C@H]1CCC(c2ccccc2)S(=O)(=O)N1Cc1ccc(N2CCn3cnnc3C2)cc1F` (single isomer, unassigned) [Example 148] was tested. Which IC50 did it give?
The IC50 was 1600 nM.

How did the IC50 turn out when `C[C@H]1CCC(c2ccccc2)S(=O)(=O)N1Cc1ccc(N2CCn3cnnc3C2)cc1F` (single isomer, unassigned) [Example 149] was run?
The IC50 was 1460 nM.

`C[C@H]1CCC(c2ccccc2)S(=O)(=O)N1Cc1ccc(N2CCC(n3cnnc3)CC2)cc1F` (single isomer, unassigned) [Example 150] was tested. Which IC50 did it give?
The IC50 was 29 nM.

`C[C@H]1CCC(c2ccccc2)S(=O)(=O)N1Cc1ccc(N2CCC(n3cnnc3)CC2)cc1F` (single isomer, unassigned) [Example 151] was tested. Which IC50 did it give?
The IC50 was 27 nM.

Which IC50 does the source give for `C[C@H]1CCC(c2ccccc2)S(=O)(=O)N1Cc1ccc(N2CCC(c3cc(O)no3)CC2)cc1F` (single isomer, unassigned) [Example 152] here?
Its IC50 is 29 nM.

`C[C@H]1CCC(c2ccccc2)S(=O)(=O)N1Cc1ccc(N2CCC(c3cc(O)no3)CC2)cc1F` (single isomer, unassigned) [Example 153] was tested. Which IC50 did it give?
The IC50 was 55 nM.

Which IC50 does the source give for `C[C@H]1CCC(c2ccccc2)S(=O)(=O)N1Cc1ccc(N2CCn3cncc3C2)cc1F` (single isomer, unassigned) [Example 154] here?
Its IC50 is 145 nM.

For `C[C@H]1CCC(c2ccccc2)S(=O)(=O)N1Cc1ccc(N2CCn3cncc3C2)cc1F` (single isomer, unassigned) [Example 155], which IC50 is on record?
The IC50 was 175 nM.

`C[C@H]1CCC(c2ccccc2)S(=O)(=O)N1Cc1ccc(N2CCc3[nH]ncc3C2)cc1F` (single isomer, unassigned) [Example 156] was tested. Which IC50 did it give?
Its IC50 is 272 nM.

`C[C@H]1CCC(c2ccccc2)S(=O)(=O)N1Cc1ccc(N2CCn3c(n[nH]c3=O)C2)cc1F` (single isomer, unassigned) [Example 157] was tested. Which IC50 did it give?
The IC50 was 1700 nM.

Which IC50 does the source give for `C[C@H]1CCC(c2ccccc2)S(=O)(=O)N1Cc1ccc(N2CCn3c(n[nH]c3=O)C2)cc1F` (single isomer, unassigned) [Example 158] here?
Its IC50 is 3930 nM.

With `COc1cc(N2CCN(C(C)=O)CC2)ccc1CN1[C@@H](C)CCC(c2ccccc2)S1(=O)=O` (single isomer, unassigned) [Example 159] as the compound, how does the IC50 read?
Its IC50 is 1610 nM.
